The inhibition is the drop in the measured response relative to a control, in per cent.

Structures can show the parent of a compound that is named as a salt.

One assay concerns RSV-GFP. As to the kind of experiment: microbe, parasite or virus in culture. It is filed as cell-based, Respiratory syncytial virus. Particulars: 10.0 µM, HEp-2, RSV-GFP MOI 0.5, single replicate. The method, then: The following morning, cells were washed twice with serum-free EMEM and treated with RSV-GFP (MOI 0.5) in a minimal volume of serum-free media for 90 min under frequent agitation. Unbound virus was then removed and replaced with fresh serum-containing EMEM. All drug additions were performed 2 h post-viral exposure, unless otherwise stated.
Automated quantification of infection rates from fluorescent images were performed in CellProfiler (v2.2.0)[86]. Major steps in the image analysis pipeline included: (1) background subtraction and smoothing, (2) segmentation of nuclei, (3) segmentation of GFP-fluorescent area, (4) object masking, and (5) measurement of nuclear number, size, and intensity. Infection rate was quantified from the ratio of nuclei within GFP-fluorescent area to the total number of nuclei (Fig. 1b). This method of analysis accounts for in vitro syncytium formation induced by RSV, whereby a single infected cell may arise from the fusion of multiple cells. Mean nuclear fluorescent intensity and size was quantified as a measure of cell viability.
The MicroSource […] Collection (Discovery Systems Inc.) consisting of 2400 compounds was screened using the previously outlined RSV-GFP infection assay protocol. Robot-assisted addition of drugs was performed within 1 h of RSV-GFP infection and infection rates were assayed 48 h p.i. Drugs were provided as 10 mM stocks in DMSO and serial diluted to a final concentration of 10 µM, resulting in a final DMSO concentration of 0.1% v/v. […] Hits were selected based on the criteria that: (a) the tested drug caused a >50% reduction in infection rate and (b) was not overtly cytotoxic (<10% change in mean nuclear intensity relative to DMSO control). Z-factors were calculated on a per-plate basis to monitor assay quality.
Turning to `CC1(C)C(=O)C=C[C@]2(C)[C@H]3CC[C@@]4(C)[C@H](c5ccoc5)OC(=O)[C@H]5O[C@]54[C@]3(C)C=C[C@@H]12` [7-Desacetoxy-6,7-dehydrogedunin], the “RSV-GFP inhibition (%)” value is reported as 69.38%.
Still for that read-out and setting: the value for `COc1cc2c(cc1OC)[C@@H]1C(=O)c3c(O)cc4c(c3O[C@@H]1CO2)C=CC(C)(C)O4` [Alpha-toxicarol] was 63.58%; that for `CC(=O)Oc1cc2c(c(C)c1OC(C)=O)CC=C1[C@@]2(C)CC[C@@]2(C)C3C[C@](C)(C(=O)O)CC[C@]3(C)CC[C@]12C` (some centres unmarked) [Dihydrocelastryl diacetate] was 89.96%; that for `CCc1c2c(nc3ccc(OC(=O)N4CCC(N5CCCCC5)CC4)cc13)-c1cc3c(c(=O)n1C2)COC(=O)[C@]3(O)CC.Cl` [Irinotecan hydrochloride] was 55.56%.
For `O=C1[O][Pt]2([NH][C@@H]3CCCC[C@H]3[NH]2)[O]C1=O` [Oxaliplatin], the “RSV-GFP inhibition (%)” value is reported as 88.7%.
The same measure, in the same setting: the value for `CC[C@@H](C(=O)[C@@H](C)[C@@H](O)[C@H](C)[C@@H]1O[C@@H]([C@@H](CC)C(=O)O)CC[C@@H]1C)[C@H]1O[C@]2(C=C[C@@H](O)[C@]3(CC[C@@](C)([C@H]4CC[C@](O)(CC)[C@H](C)O4)O3)O2)[C@H](C)C[C@@H]1C` [Salinomycin, sodium] was 96.45%; that for `CC(=O)OC1CCC23C(=O)OC45CCC(C6=CC(=O)OC6)C4(C)CCC2C5CCC3(O)C1` (centres unmarked) [Strophanthidinic acid lactone acetate] was 82.33%.
For the molecule Antimycin A1, the “RSV-GFP inhibition (%)” value came to 79.49%.
Turning to Benzalkonium chloride, the “RSV-GFP inhibition (%)” value is 77.34%.

The assay is the same for the next values; noted with them: HEp-2, RSV-GFP.
Consider `CC(C)n1c(/C=C/C(O)CC(O)CC(=O)O)c(-c2ccc(F)cc2)c2ccccc21` (centres unmarked) [Fluvastatin], for which the “RSV inhibition in the screen” value is on record as “inhibit RSV at low micromolar concentrations”.
For the molecule `O=C(O)C[C@H](O)C[C@H](O)/C=C/c1c(C2CC2)nc2ccccc2c1-c1ccc(F)cc1` [Pitavastatin calcium], the “RSV inhibition in the screen” value is on record as “inhibit RSV at low micromolar concentrations”.

Still in this assay, the particulars now being: human respiratory syncytial virus, HEp-2, read-out: RSV-GFP inhibition (%).
With `C#C[C@]1(OC(C)=O)CC[C@H]2[C@@H]3CCC4=CC(=NO)CC[C@@H]4[C@H]3CC[C@@]21CC` (mixture of isomers) [Norgestimate], the inhibition at 10 µM was 55%.
As for `C#CC1(O)CC[C@H]2[C@@H]3CCC4=CC(=O)CC[C@@H]4[C@H]3CC[C@@]21CC` (mixture of isomers) [Norgestrel], the inhibition at 10 µM turned out to be 64.1%.
Take `COc1ccc(-c2cc(=O)c3ccccc3o2)cc1` [4’-Methoxyflavone]: the inhibition at 10 µM came out at 59.9%.
`O=c1cc(-c2ccc(O)cc2)oc2ccc(O)cc12` [6,4’-Dihydroxyflavone]: the inhibition at 10 µM was 75.3%.
For `CCCCC(CC)CNC(=N)NC(=N)NCCCCCCNC(=N)NC(=N)NCC(CC)CCCC` (centres unmarked) [Alexidine hydrochloride], the inhibition at 10 µM is 66.8%.
In the case of `Nc1c2ccccc2nc2ccccc12` [Aminacrine], the inhibition at 10 µM amounted to 58.3%.
In the case of `CC[C@@]1(O)C(=O)OCc2c1cc1n(c2=O)Cc2cc3ccccc3nc2-1` [Camptothecin], the inhibition at 10 µM is 55.7%.
The same measure, in the same setting: the value for `CCCCCCCCCCCCCCCC[N+](C)(C)C` [Cetrimonium bromide] was 71.2%; that for `Cc1nc2ccccc2n1Cc1ccc(Cl)cc1` [Chlormidazole] was 68.5%; that for `C=C[C@@]1(C)CC(=O)[C@]2(O)[C@@]3(C)[C@@H](O)CCC(C)(C)[C@@H]3[C@H](O)[C@H](OC(C)=O)[C@@]2(C)O1` [Colforsin] was 72.5%.
Same read-out and setting: the same measure for `C[C@@H]1C[C@@H]([C@H](O)CC2CC(=O)NC(=O)C2)C(=O)[C@@H](C)C1` [Cycloheximide]: 75%; for `CC1=C2C[C@H]3[C@@H](CC=C4C[C@@H](O)CC[C@@]43C)[C@@H]2CC[C@]12O[C@@H]1C[C@H](C)CN[C@H]1[C@H]2C` [Cyclopamine]: 86%; for `Cc1cc(N)c2ccccc2[n+]1CCCCCCCCCC[n+]1c(C)cc(N)c2ccccc21` [Dequalinium chloride]: 63.8%.
With `C[C@]12CC[C@H](O)C[C@H]1CC[C@@H]1[C@@H]2C[C@@H](O)[C@]2(C)[C@@H](C3=CC(=O)OC3)CC[C@]12O` [Digoxigenin], the inhibition at 10 µM was 85.1%.
The same measure, in the same setting: the same measure for `Cc1c(O)c(O)cc2c1CC=C1[C@@]2(C)CC[C@@]2(C)[C@@H]3C[C@](C)(C(=O)O)CC[C@]3(C)CC[C@]12C` [Dihydrocelastrol]: 82.6%; for `C[C@]12CCC(=O)C=C1[C@@H]1C[C@@H]1[C@H]1[C@@H]3[C@@H]4C[C@@H]4[C@@]4(CCC(=O)O4)[C@@]3(C)CC[C@@H]12` [Drospirenone]: 68.3%; for `CC[C@H]1CN2CCc3cc(OC)c(OC)cc3[C@@H]2C[C@@H]1C[C@H]1NCCc2cc(OC)c(OC)cc21` [Emetine dihydrochloride]: 100%.
With `CC(C)n1c(/C=C/C(O)CC(O)CC(=O)O)c(-c2ccc(F)cc2)c2ccccc21` (centres unmarked) [Fluvastatin], the inhibition at 10 µM was found to be 73.2%.
Same read-out and setting: the same measure for `CN(C)c1ccc(C(=C2C=CC(=[N+](C)C)C=C2)c2ccc(N(C)C)cc2)cc1` [Gentian violet]: 86.3%.
Take `CC(=O)O[C@H]1CC[C@@]2(C)[C@H](CC[C@@H]3[C@@H]2CC[C@]2(C)[C@@H](C4=CC(=O)OC4)[C@@H](OC(C)=O)C[C@]32O)C1` [Gitoxigenin diacetate]: the inhibition at 10 µM was 91.8%.
The same measure, in the same setting: the same measure for `C[C@H]1O[C@@H](O[C@H]2[C@@H](O)C[C@H](O[C@H]3[C@@H](O)C[C@H](O[C@H]4CC[C@@]5(C)[C@H](CC[C@@H]6[C@@H]5CC[C@]5(C)[C@@H](C7=CC(=O)OC7)[C@@H](O)C[C@]65O)C4)O[C@@H]3C)O[C@@H]2C)C[C@H](O)[C@@H]1O` [Gitoxin]: 85.7%; for `Oc1c(Cl)cc(Cl)c(Cl)c1Cc1c(O)c(Cl)cc(Cl)c1Cl` [Hexachlorophene]: 83.2%.
On the same count and under the same terms, the same measure for `CC(=O)O[C@H]1C[C@H](O[C@H]2[C@@H](O)C[C@H](O[C@H]3[C@@H](O)C[C@H](O[C@H]4CC[C@@]5(C)[C@H](CC[C@@H]6[C@@H]5C[C@@H](O)[C@]5(C)[C@@H](C7=CC(=O)OC7)CC[C@]65O)C4)O[C@@H]3C)O[C@@H]2C)O[C@H](C)[C@H]1O[C@@H]1O[C@H](CO)[C@@H](O)[C@H](O)[C@H]1O` [Lanatoside C]: 100%.
`CN(C)c1ccc2nc3ccc(=[N+](C)C)cc-3sc2c1` [Methylene blue]: the inhibition at 10 µM turned out to be 67.8%.
Regarding `CC[C@@]1([C@@H]2O[C@@H]([C@H]3O[C@@](O)(CO)[C@H](C)C[C@@H]3C)C[C@@H]2C)CC[C@H]([C@]2(C)CC[C@]3(C[C@H](O)[C@@H](C)[C@@H]([C@@H](C)[C@@H](OC)[C@H](C)C(=O)O)O3)O2)O1` [Monensin A], the inhibition at 10 µM is 93.9%.
Still for that read-out and setting: the value for `COc1c(C)c2c(c(O)c1C/C=C(\C)CCC(=O)OCCN1CCOCC1)C(=O)OC2` [Mycophenolate mofetil] was 98.4%; that for `COc1c(C)c2c(c(O)c1C/C=C(\C)CCC(=O)O)C(=O)OC2` [Mycophenolic acid] was 98.8%; that for `CCCCCCCCCc1ccc(OCCOCCOCCOCCOCCOCCOCCOCCOCCO)cc1` [Nonoxynol-9] was 69.2%.
`C#C[C@]1(OC(C)=O)CC[C@H]2[C@@H]3CCC4=CC(=O)CC[C@@H]4[C@H]3CC[C@@]21C` [Norethindrone acetate]: the inhibition at 10 µM was found to be 54.2%.
Consider `C#C[C@]1(O)CC[C@H]2[C@@H]3CCC4=C(CCC(=O)C4)[C@H]3CC[C@@]21C` [Norethynodrel], for which the inhibition at 10 µM was found to be 75.4%.
The same measure, in the same setting: the value for `C[C@@H]1O[C@@H](O[C@H]2C[C@@H](O)[C@]3(CO)[C@H]4[C@H](O)C[C@]5(C)[C@@H](C6=CC(=O)OC6)CC[C@]5(O)[C@@H]4CC[C@]3(O)C2)[C@H](O)[C@H](O)[C@H]1O` [Ouabain] was 100%; that for `N=C(N)c1ccc(OCCCCCOc2ccc(C(=N)N)cc2)cc1` [Pentamidine isethionate] was 60.2%.
`CO[C@H]1[C@H](O)[C@H](O[C@H]2CC[C@@]3(C=O)[C@H](CC[C@@H]4[C@@H]3CC[C@]3(C)[C@@H](C5=CC(=O)OC5)CC[C@]43O)C2)O[C@@H](C)[C@@H]1O` [Peruvoside]: the inhibition at 10 µM worked out at 98.2%.
Same read-out and setting: the same measure for `O=C(O)C[C@H](O)C[C@H](O)/C=C/c1c(C2CC2)nc2ccccc2c1-c1ccc(F)cc1` [Pitavastatin calcium]: 63.4%; for `COC(=O)[C@]1(C)CC[C@]2(C)CC[C@]3(C)C4=CC=C5C(=CC(=O)C(O)=C5C)[C@]4(C)CC[C@@]3(C)[C@@H]2C1` [Pristimerin]: 74.1%.
`CC(=O)[C@H]1CC[C@H]2[C@@H]3CCC4=CC(=O)CC[C@]4(C)[C@H]3CC[C@]12C` [Progesterone]: the inhibition at 10 µM is 50.5%.
For `C[C@@H]1O[C@@H](O[C@@H]2C=C3CC[C@@H]4[C@H](CC[C@]5(C)[C@@H](c6ccc(=O)oc6)CC[C@]45O)[C@@]3(C)CC2)[C@H](O)[C@H](O)[C@H]1O` [Proscillaridin], the inhibition at 10 µM is 81.6%.
Take `C[C@]12CC[C@H]3[C@@H](CC[C@]4(O)C[C@@H](O)CC[C@]34C=O)[C@@]1(O)CC[C@@H]2C1=CC(=O)OC1` [Strophanthidin]: the inhibition at 10 µM was found to be 90.4%.
Same read-out and setting: the value for `CCC(=O)O[C@H]1CC[C@H]2[C@@H]3CCC4=CC(=O)CC[C@]4(C)[C@H]3CC[C@]12C` [Testosterone propionate] was 84.7%.

The record behind these values is PMC8556396, “Statin-mediated disruption of Rho GTPase prenylation and activity inhibits respiratory syncytial virus infection” (Communications Biology, 2021).
